From patent US9656984B2, “PI3K/AKT/mTOR inhibitors and pharmaceutical uses thereof” (UNIVERSITE DE RENNES 1, priority 2013, dated 2017)

Key:
[1] = molecular target: T1, mTOR (Homo sapiens, UniProt P42345); test: Biotin pull-down with streptavidin-coated beads from CEM cells, mTOR immunoblot; format: binding; conditions: 1 μM, CEM leukemic T cells, FIG. 12B
T1 construct: endogenous in cells; host or cells: CEM leukemic T cells
Experimental: Compounds 25 and 48 (compound 25 linked to biotin) (1 μM) were incubated with CEM leukemic T cells for indicated times. Then cells were lyzed in RIPA buffer and biotin was immunoprecipitated using streptavidin-coated magnetic beads. Beads were washed and the presence of mTOR was analyzed in compound 48-associated complex by Immunoblotting.
CEM cells (10^7 cells) were pre-incubated for indicated times with 1 μM of compound 25 or compound 48, washed with PBS and lysed using RIPA buffer [50 mM Tris pH7.4, 1% NP-40, 0.5% Na-deoxycholate, 0.1% SDS, 150 mM NaCl, 2 mM EDTA, inhibitors of protease and phosphatase (Sigma)].

[2] = molecular target: mTORC2 (Homo sapiens, UniProt P42345); test: Immunoblot of AKT serine 473 phosphorylation (target of mTORC2); format: cell-based; design: endogenous in cells; conditions: with increasing compound concentrations, FIG. 12A
Experimental: (§1) The inhibition of the phosphorylation level of AKT at serine 473, target of mTORC2, and 4EBP1 (also called Eukaryotic translation initiation factor 4E-binding protein 1) at threonines 37/46, which are targets of mTORC1, by compound 48 (compound 25 linked to biotin) was assessed by immunoblotting. Total AKT and 4EBP1 were added as loading controls.
(§2) Immunoblots Excepted for immunoprecipitation experiments in which cells were lyzed with RIPA buffer, cells were lyzed for 30 min at 4° C. in Lysis buffer (25 mM HEPES pH 7.4, 1% v/v Triton X-100, 150 mM NaCl, 2 mM EGTA supplemented with a mix of protease inhibitors). Protein concentration was determined by the bicinchoninic acid method (Pierce, Rockford, Ill., USA) according to the manufacturer's protocol. Proteins were resolved by 8, 10 or 12% SDS-PAGE and transferred to a nitrocellulose membrane (GE Healthcare, Buckinghamshire, UK). The membrane was blocked 15 min with TBST (50 mM Tris, 160 mM NaCl, 0.05% v/v Tween 20, pH 7.4) containing 5% w/v dried skimmed milk (TBS™). Primary antibody was incubated overnight at 4° C. in TBS™. The membrane was intensively washed (TBST) and then the peroxydase-labeled anti-mouse IgG1 or IgG2a (CliniSciences, Nanterre, France) was added for 45 min. Proteins were visualized with the enhanced chemiluminescence substrate kit (ECL RevelBIOt®, Ozyme, Saint Quentin en Yvelines, France).

[3] = molecular target: mTORC1 (Homo sapiens, UniProt P42345); test: Immunoblot of 4EBP1 threonines 37/46 phosphorylation (targets of mTORC1); format: cell-based; design: endogenous in cells; conditions: with increasing compound concentrations, FIG. 12A
Experimental: as §1, §2

## O=C(CCCCC1SC[C@@H]2NC(=O)N[C@H]12)NCCCOc1cc(Br)c2c(c1)C=C([N+](=O)[O-])C(c1ccc(Br)cc1)O2 (stereo partly drawn) [Compound 48]
[1]
  binding to mTOR: binds to mTOR
[2]
  phosphorylation of AKT at serine 473: decreases
[3]
  phosphorylation of 4EBP1 at threonines 37/46: decreases
